Test results: patent US10662159B2, “ABHD6 and dual ABHD6/MGL inhibitors and their uses” (MAKScientific, LLC, priority 2017, dated 2020)

Experiments:
Format in all cases: biochemical
hMGL = hMGL (Homo sapiens (Human), UniProt Q99685); test: Fluorescent assay for hMGL (AHMMCE substrate hydrolysis); conditions: E. coli lysate containing hMGL, read-out: hMGL Inhibition IC50
Method: (§1) Certain compounds were tested for their ABHD6 and dual ABHD6/MGL inhibitory activity, which is expressed as % of inhibition or IC50 values in Table 1. The percentage of inhibition describes the percentage by which the inhibitor reduces the velocity/rate of 2-AG hydrolysis by ABHD6, and MGL or AEA hydrolysis by FAAH. […] The lower the IC50 values, the higher its inhibitory activity. A detailed description of the methods used to test inhibitory activity of compounds is given below.
Preparation of Human MAGL (hMAGL)
Fluorescent Assay Protocol for hMGL
This medium throughput assay involved a 96-well plate format in which hMGL activity was monitored by the hydrolysis of the substrate […] (AHMMCE) to form the fluorescent product, coumarin. […] Upon the addition of AHMMCE, the reaction was incubated at 25° C. for 120 min; fluorescence readings were taken every 15 min at 360 nm/460 nm (λexcitation/λemission) using a Synergy HT Plate Reader (Bio-Tek, Winooski, Vt.). […] External standards were used to convert relative fluorescence units to the amount of 4-methylcoumarin formed. All MGL assays were performed in triplicate for each inhibitor concentration, and IC50 values were calculated using Prizm software (GraphPad Software, Inc., San Diego, Calif.).

hFAAH = hFAAH (Homo sapiens (Human), UniProt O00519); test: Fluorescent assay for hFAAH; conditions: MBP ΔTM hFAAH, procedure as for rFAAH; read-out: hFAAH Inhibition IC50
hFAAH, sequence (O00519 30-579): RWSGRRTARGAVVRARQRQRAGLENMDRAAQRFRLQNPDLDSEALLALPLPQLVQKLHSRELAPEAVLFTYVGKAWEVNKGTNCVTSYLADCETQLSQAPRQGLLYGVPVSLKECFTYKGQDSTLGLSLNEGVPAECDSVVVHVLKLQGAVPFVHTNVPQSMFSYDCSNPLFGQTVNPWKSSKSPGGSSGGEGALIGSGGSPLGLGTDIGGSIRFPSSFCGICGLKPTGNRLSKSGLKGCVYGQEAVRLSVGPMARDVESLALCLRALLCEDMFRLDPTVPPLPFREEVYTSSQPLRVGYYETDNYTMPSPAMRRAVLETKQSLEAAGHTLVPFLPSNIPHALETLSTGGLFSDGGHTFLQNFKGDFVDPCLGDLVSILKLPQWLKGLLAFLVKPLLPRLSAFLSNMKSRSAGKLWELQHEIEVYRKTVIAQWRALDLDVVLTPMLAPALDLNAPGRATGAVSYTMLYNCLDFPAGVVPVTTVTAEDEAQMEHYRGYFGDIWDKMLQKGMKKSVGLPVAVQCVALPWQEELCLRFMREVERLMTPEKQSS
Method: (§2) Certain compounds were tested for their ABHD6 and dual ABHD6/MGL inhibitory activity, which is expressed as % of inhibition or IC50 values in Table 1. The percentage of inhibition describes the percentage by which the inhibitor reduces the velocity/rate of 2-AG hydrolysis by ABHD6, and MGL or AEA hydrolysis by FAAH. The IC50 is the concentration of the inhibitor, which results in 50% inhibition of the velocity/rate of 2-AG hydrolysis by ABHD6 or MGL. The IC50 is the concentration of the inhibitor, which results in 50% inhibition of the velocity/rate of AEA hydrolysis by FAAH. The lower the IC50 values, the higher its inhibitory activity. A detailed description of the methods used to test inhibitory activity of compounds is given below.
Example 80. Preparation of Human FAAH in Fusion with N-Terminal Maltose Binding Tag (MBP ΔTM hFAAH)
Human FAAH without putative transmembrane domain following maltose binding protein was expressed in E. coli cells using pMALcE4 vector Alapafuja et al J. Med. Chem. (2012) 55: 10074-89.
(§3) The fluorescence reading at the 3 hour time point (linear enzyme kinetics) was used to calculate percent inhibition based on control assays without inhibitor present. All FAAH assays were performed in triplicate for each inhibitor concentration, and IC50 values determined using Prizm software (GraphPad Software, Inc.).
Example 82. Fluorescent Assay Protocol for hFAAH
Procedure was followed as described for rFAAH.

Rat ΔTM FAAH = Rat ΔTM FAAH (Rattus norvegicus (Rat), UniProt P97612); test: Fluorescent assay for rat ΔTM FAAH (AAMCA substrate); conditions: ΔTM rFAAH, AAMCA 20 μM; read-out: rFAAH Inhibition IC50
Rat ΔTM FAAH, sequence (P97612 30-579): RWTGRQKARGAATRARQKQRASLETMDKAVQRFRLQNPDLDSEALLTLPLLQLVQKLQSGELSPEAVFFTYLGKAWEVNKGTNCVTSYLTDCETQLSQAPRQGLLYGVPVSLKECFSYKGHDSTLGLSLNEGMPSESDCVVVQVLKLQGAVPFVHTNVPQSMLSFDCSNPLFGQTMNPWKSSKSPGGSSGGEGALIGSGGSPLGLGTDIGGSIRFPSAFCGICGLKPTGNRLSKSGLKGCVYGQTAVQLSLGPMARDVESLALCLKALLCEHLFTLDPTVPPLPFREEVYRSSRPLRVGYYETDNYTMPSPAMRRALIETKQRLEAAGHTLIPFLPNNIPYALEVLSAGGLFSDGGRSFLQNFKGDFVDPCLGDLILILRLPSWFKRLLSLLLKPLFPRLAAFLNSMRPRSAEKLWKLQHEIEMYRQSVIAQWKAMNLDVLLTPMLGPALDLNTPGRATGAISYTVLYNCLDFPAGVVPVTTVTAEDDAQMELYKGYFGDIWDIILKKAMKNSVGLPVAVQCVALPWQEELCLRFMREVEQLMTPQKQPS
Method: as §2
Example 79. Preparation of Transmembrane Domain-Deleted Rat FAAH (ΔTM rFAAH)
Rat ΔTM FAAH was expressed in E. coli cells and purified using the procedure disclosed by Patricelli et al. Biochemistry (1998) 37: 15177-15187.
Example 81. Fluorescent Assay Protocol for Rat ΔTM FAAH
as §3

hABHD6 = hABHD6 (Homo sapiens (Human), UniProt Q9BV23); test: Fluorescent assay for hABHD6 (AHMMCE substrate hydrolysis); conditions: membrane fraction containing full-length hABHD6, 20 μM AHMMCE; read-out: ABHD6 Inhibition IC50
hABHD6, sequence (Q9BV23 whole entry): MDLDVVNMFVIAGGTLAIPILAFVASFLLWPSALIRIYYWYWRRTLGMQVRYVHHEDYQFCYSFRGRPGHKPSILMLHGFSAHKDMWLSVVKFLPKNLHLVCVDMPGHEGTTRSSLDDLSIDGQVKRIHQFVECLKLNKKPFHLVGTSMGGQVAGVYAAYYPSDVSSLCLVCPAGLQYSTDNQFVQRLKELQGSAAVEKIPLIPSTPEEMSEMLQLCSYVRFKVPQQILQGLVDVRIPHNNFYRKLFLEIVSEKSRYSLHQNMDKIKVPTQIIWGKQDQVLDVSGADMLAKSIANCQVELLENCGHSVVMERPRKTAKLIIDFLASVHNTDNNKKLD
Method: as §1
Fluorescent Assays Protocol for hABHD6
Initial Fluorescent Inhibition Assay (3-Point)—
In each well of a 96-well plate 8 μL of membrane fraction containing full-length hABHD6 (1 μg total protein) was mixed with 168 μL of assay buffer (50 mM Tris-HCl, pH 7.6), and 20 μL of diluted compound (diluted in a dilution buffer consisting of 50% DMSO/50% assay buffer v/v). Each plate was incubated at RT for 15 minutes before adding 4 μL of 1 mM AHMMCE substrate (final concentration of 20 μM AHMMCE and final volume of 200 μL). The reaction was allowed to proceed for 1 hr at RT before the fluorescence was read at λex 360 nm and λem 460 nm and the inhibition calculated. Each experiment can test 8 compounds at three concentrations (usually 10 μM, 1 μM, and 100 nM).
IC50 Determination Assay (8-Point)—
A more detailed assay with an extended range tests compounds over 8 concentrations depending on the pre-determined approximate IC50 value from the initial screen. […] The assay was conducted in 96 well plate with each well containing the same reaction mixture detailed above in the 3-point screen. The relative fluorescence is quantified into coumarin produced by using a standard curve of HMMC in triplicate on each plate. Results are normalized to the negative control wells and the IC50 is determined using a non-linear regression curve fit in Prism, version 5 (GraphPad, San Diego, Calif.).

hMGL, sequence (Q99685 whole entry): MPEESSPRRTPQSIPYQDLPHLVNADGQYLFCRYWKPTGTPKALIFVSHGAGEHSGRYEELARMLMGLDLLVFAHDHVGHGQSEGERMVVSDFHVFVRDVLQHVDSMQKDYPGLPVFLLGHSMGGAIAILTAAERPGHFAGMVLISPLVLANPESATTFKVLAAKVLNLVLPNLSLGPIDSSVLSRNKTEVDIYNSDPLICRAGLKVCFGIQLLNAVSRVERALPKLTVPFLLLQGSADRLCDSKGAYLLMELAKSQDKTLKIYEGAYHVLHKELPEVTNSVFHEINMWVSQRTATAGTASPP

SMILES | IC50 (hMGL) | IC50 (hFAAH) | IC50 (Rat ΔTM FAAH) | IC50 (hABHD6)
CC1c2ccccc2CCN1C(=O)OC(C(F)(F)F)C(F)(F)F (racemic) [Example 6, 1,1,1,3,3,3-Hexafluoropropan-2-yl 1-methyl-3,4-dihydroisoquinoline-2(1H)-carboxylate] | > 1000 nM | > 1000 nM | > 1000 nM | > 1000 nM
CCC1c2ccccc2CCN1C(=O)OC(C(F)(F)F)C(F)(F)F (racemic) [Example 7, 1,1,1,3,3,3-Hexafluoropropan-2-yl 1-ethyl-3,4-dihydroisoquinoline-2(1H)-carboxylate] | > 1000 nM | > 1000 nM | > 1000 nM | > 1000 nM
O=C(OC(C(F)(F)F)C(F)(F)F)N1CCc2ccccc2C1 [Example 1, 1,1,1,3,3,3-Hexafluoropropan-2-yl 3,4-dihydroisoquinoline-2(1H)-carboxylate] | > 1000 nM | > 1000 nM | > 1000 nM | 10 to 100 nM
O=C(OC(C(F)(F)F)C(F)(F)F)N1CCc2ccccc2[C@H]1c1ccccc1 [Example 2, 1,1,1,3,3,3-Hexafluoropropan-2-yl(R)-1-phenyl-3,4-dihydroisoquinoline-2(1H)-carboxylate] | > 1000 nM | > 1000 nM | > 1000 nM | > 1000 nM
O=C(OC(C(F)(F)F)C(F)(F)F)N1CCc2ccccc2[C@@H]1c1ccccc1 [Example 3, 1,1,1,3,3,3-Hexafluoropropan-2-yl (S)-1-phenyl-3,4-dihydroisoquinoline-2(1H)-carboxylate] | > 1000 nM | > 1000 nM | > 1000 nM | > 1000 nM
O=C(OC(C(F)(F)F)C(F)(F)F)N1CCc2cccc(Br)c2C1 [Example 4, 1,1,1,3,3,3-Hexafluoropropan-2-yl 8-bromo-3,4-dihydroisoquinoline-2(1H)-carboxylate] | > 1000 nM | > 1000 nM | > 1000 nM | 10 to 100 nM
O=C(OC(C(F)(F)F)C(F)(F)F)N1Cc2ccc(Br)cc2C1 [Example 8, 1,1,1,3,3,3-Hexafluoropropan-2-yl 5-bromoisoindoline-2-carboxylate] | > 1000 nM | > 1000 nM | > 1000 nM | 10 to 100 nM
COc1ccc2c(c1)CN(C(=O)OC(C(F)(F)F)C(F)(F)F)C2 [Example 9, 1,1,1,3,3,3-Hexafluoropropan-2-yl 5-methoxyisoindoline-2-carboxylate] | > 1000 nM | > 1000 nM | > 1000 nM | 10 to 100 nM
O=C(OC(C(F)(F)F)C(F)(F)F)N1CCc2cc(Br)ccc21 [Example 10, 1,1,1,3,3,3-Hexafluoropropan-2-yl 5-bromoindoline-1-carboxylate] | > 1000 nM | > 1000 nM | > 1000 nM | 100 to 1000 nM
O=C(OC(C(F)(F)F)C(F)(F)F)N1Cc2cc(Br)cnc2C1 [Example 11, 1,1,1,3,3,3-Hexafluoropropan-2-yl 3-bromo-5,7-dihydro-6H-pyrrolo[3,4-b]pyridine-6-carboxylate] | > 1000 nM | > 1000 nM | > 1000 nM | 100 to 1000 nM
O=C(OC(C(F)(F)F)C(F)(F)F)N1Cc2cccc(Br)c2C1 [Example 12, 1,1,1,3,3,3-Hexafluoropropan-2-yl 4-bromoisoindoline-2-carboxylate] | > 1000 nM | > 1000 nM | > 1000 nM | 100 to 1000 nM
